Experiments:
ERα LBD = biological target: T1, ERα LBD (Homo sapiens, UniProt P03372); assay type: binding; details: 5 μM 2′,3′,4′-THC alone
T1 construct: Purified ERα LBD containing amino acids 315-545 used by Brzozowski et al; histidine-tag; purchased GenScript
T1 sequence (P03372 315-545): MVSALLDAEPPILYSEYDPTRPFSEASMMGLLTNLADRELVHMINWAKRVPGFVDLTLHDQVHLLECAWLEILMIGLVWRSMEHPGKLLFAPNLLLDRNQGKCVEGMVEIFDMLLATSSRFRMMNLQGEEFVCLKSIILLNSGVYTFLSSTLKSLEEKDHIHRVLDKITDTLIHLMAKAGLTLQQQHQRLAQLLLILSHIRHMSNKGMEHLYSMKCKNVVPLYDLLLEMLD

U2OS-ERα cells [1] = assay: Microarray gene regulation in U2OS-ERα cells; assay type: cell-based, human
Protocol: Total cellular RNA was isolated utilizing the Aurum™ RNA isolation kit (Bio-Rad, Hercules, Calif.) per the manufacturer's directions. RNA isolates were first quantified by nanodrop®, and then qualitatively evaluated by the Bio-Rad Experion™ system per the manufacturer's instructions. Biotin-labeled cRNA samples were prepared using 750 ng of total RNA. Biotin-labeled samples were evaluated by both 260/280 absorbance spectrophotometry and capillary electrophoresis. Labeled cRNA samples were hybridized overnight against Human genome HG U133A-2.0 GeneChip® arrays, (Affymetrix, Santa Clara, Calif.). All treatments were done in triplicate with the same batch of microarrays. The data was analyzed as previously described (Saunier, E. F., et al. Estrogenic plant extracts reverse weight gain and fat accumulation without causing mammary gland or uterine proliferation. PloS one 6, e28333 (2011)).
FIGS. 2a-2f2′, 3′, 4′-THC behaves as a unique coagonist on gene expression in U2OS-ERα cells. […] Expression was assessed by up regulation or down regulation of 3-fold or more and a P-value≤0.05. […] Error bars are ±SEM.

ERβ = biological target: T2, ERβ (Homo sapiens, UniProt Q92731); assay: ERE-tk luciferase transfection assay, U2OS cells cotransfected with ERβ; assay type: cell-based
T2 construct: expressed in transfected cells; host or cells: U2OS

ERα = ERα (Homo sapiens, UniProt P03372); assay: ChIP of ERα recruitment in MCF-7 cells; assay type: cell-based; parameters: expressed in transfected cells; details: 5 μM + 10 nM E2, 1 hour
MCF-7 cells [2] = assay: MCF-7 cell proliferation (cell counting); details: 5 days
U2OS-ERα cells [3] = assay: NKG2E mRNA real-time PCR in U2OS-ERα cells; assay type: cell-based, human
Protocol: (FIG. 1a) Chemical structure of 2′, 3′, 4′-THC. (FIG. 1b) U2OS cells cotransfected with ERE tk-luciferase and ERα (left panel) or ERβ (right panel). After transfection the cells were treated for 24 hours with 10 nM estradiol and 5 μM 2′, 3′, 4′-THC alone or in combination. Cells were lysed and luciferase activity was measured. RLU is relative light units. Error bars are the Mean±SEM. **P≤0.01. […] The total cellular RNA was extracted and real-time PCR for KRT19 mRNA was performed as described in Materials and Methods. […] Error bars are ±SEM. *P≤0.05, **** P≤0.0001.
(FIGS. 6a, 6b) Gene expression of (FIG. 6a) KRT73 and (FIG. 6b) NKG2E in U2OS-ERα cells treated with 10 nM estradiol, 5 μM 2′, 3′, 4′-THC, 1μM ICI alone or in combination for 24 hours. […] Error bars are ±SEM. […] After transfection, luciferase activities were measured as described in the Methods. RLU is relative light units and the data shown are mean ±SEM. (FIG. 6c). […] After transfection, luciferase activities were measured as described in the Methods. RLU is relative light units and the data shown are mean ±SEM (FIG. 6d).

hAR = biological target: T3, hAR (Homo sapiens, UniProt P10275); assay: TAT3-luciferase reporter, U2OS cells cotransfected with hAR; assay type: cell-based; details: 5 μM + 10 nM dihydrotestosterone, 24 hours
T3 construct: expressed in transfected cells; host or cells: U2OS
T3 sequence (P10275 1-920): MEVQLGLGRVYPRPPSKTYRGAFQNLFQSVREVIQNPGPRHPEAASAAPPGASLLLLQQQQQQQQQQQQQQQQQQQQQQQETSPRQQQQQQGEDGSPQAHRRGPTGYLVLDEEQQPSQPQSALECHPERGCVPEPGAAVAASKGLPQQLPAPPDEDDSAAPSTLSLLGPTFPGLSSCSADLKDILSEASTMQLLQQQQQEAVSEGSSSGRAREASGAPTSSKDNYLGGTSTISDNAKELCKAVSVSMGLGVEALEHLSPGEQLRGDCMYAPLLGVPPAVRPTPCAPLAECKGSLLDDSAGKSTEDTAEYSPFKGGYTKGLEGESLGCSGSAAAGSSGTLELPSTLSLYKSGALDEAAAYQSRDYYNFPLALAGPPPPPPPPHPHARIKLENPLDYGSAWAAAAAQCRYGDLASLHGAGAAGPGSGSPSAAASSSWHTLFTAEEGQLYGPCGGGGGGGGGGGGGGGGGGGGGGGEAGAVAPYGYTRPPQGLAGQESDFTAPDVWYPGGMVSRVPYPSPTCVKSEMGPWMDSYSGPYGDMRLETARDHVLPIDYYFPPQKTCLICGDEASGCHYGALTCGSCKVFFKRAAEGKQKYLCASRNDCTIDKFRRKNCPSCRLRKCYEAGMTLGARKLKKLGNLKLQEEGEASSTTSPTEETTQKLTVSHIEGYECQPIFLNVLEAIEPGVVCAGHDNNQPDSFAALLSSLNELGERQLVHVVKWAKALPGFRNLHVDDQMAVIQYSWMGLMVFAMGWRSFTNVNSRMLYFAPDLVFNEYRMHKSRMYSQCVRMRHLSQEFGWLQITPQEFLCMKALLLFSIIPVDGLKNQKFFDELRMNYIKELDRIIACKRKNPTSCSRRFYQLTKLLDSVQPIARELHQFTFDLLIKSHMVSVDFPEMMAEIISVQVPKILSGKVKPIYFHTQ

MCF-7 cells [4] = assay: KRT19 mRNA RT-QPCR in MCF-7 cells; details: 5 μM + 10 nM E2, 4 hours

ERα, sequence (P03372 whole entry): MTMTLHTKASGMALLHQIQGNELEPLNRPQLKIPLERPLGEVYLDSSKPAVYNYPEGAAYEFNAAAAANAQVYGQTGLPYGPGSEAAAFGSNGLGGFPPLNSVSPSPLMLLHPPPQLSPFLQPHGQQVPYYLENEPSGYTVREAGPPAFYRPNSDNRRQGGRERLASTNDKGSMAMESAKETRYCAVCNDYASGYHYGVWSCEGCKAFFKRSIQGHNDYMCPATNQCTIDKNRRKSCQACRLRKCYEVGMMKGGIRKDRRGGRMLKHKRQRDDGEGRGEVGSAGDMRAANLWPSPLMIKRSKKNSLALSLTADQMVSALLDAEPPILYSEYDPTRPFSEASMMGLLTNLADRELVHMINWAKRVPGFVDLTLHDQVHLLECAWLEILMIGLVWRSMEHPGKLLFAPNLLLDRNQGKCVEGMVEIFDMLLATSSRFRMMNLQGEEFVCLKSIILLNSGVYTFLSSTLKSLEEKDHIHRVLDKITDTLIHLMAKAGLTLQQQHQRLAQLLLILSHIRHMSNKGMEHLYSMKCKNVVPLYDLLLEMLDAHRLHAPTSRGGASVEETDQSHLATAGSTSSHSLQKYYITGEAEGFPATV
T2 sequence (Q92731 whole entry): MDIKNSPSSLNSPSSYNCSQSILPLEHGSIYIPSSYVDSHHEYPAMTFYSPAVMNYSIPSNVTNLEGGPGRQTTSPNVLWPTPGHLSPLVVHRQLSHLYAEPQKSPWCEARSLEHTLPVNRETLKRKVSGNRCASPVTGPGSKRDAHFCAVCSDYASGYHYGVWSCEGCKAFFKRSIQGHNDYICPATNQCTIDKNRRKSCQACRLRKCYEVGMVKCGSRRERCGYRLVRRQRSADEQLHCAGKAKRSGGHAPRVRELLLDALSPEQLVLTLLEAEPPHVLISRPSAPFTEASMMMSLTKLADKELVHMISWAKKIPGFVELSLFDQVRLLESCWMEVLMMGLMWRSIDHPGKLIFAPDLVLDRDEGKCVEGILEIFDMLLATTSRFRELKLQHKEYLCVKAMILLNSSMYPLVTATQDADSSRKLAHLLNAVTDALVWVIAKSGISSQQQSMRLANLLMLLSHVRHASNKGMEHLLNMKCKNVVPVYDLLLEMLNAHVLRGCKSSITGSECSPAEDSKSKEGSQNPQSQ

SMILES: O=C(/C=C/c1ccccc1)c1ccc(O)c(O)c1O [2′, 3′, 4′-THC, 2′, 3′, 4′-trihydroxychalcone]
- melting temperature of ERα LBD (ERα LBD): no effect
- number of genes regulated, compound alone (U2OS-ERα cells [1]; 10 nM E2 or 5 μM 2′,3′,4′-THC, 3-fold or more, P≤0.05): 31 genes
- genes regulated by the combination that were also regulated by E2 (U2OS-ERα cells [1]; 5 μM + 10 nM E2): 534 genes
- number of genes regulated by the 2′,3′,4′-THC/E2 combination (U2OS-ERα cells [1]; 5 μM + 10 nM E2): 1,358 genes
- unique genes only regulated by the 2′,3′,4′-THC/E2 combination (U2OS-ERα cells [1]; 5 μM + 10 nM E2): 824 genes
- luciferase activity with E2 (ERβ; ERβ, 5 μM + 10 nM E2, 24 hours): synergistic increase
- activity on ERE luciferase, compound alone (ERβ; U2OS cells transfected with ERβ, 5 μM, 24 hours): inactive
- effect on E2 induced ERα binding to the c-MYC enhancer (ERα): inhibited
- effect on recruitment of ERα to the KRT19 ERE (ERα): did not have a significant effect
- effect on proliferation induced by E2 (MCF-7 cells [2]; 1, 5 and 10 μM, dose-dependent): blocked
- MCF-7 cell proliferation, compound alone (MCF-7 cells [2]): no effect
- NKG2E gene expression, compound alone (U2OS-ERα cells [3]; 10 nM E2, 5 μM 2′,3′,4′-THC, 1 μM tamoxifen or raloxifene, 24 hours): no effect
- synergy in combination with tamoxifen or raloxifene (U2OS-ERα cells [3]; 5 μM + 1 μM tamoxifen or raloxifene): No synergy
- effect on E2-induced NKG2E gene expression (U2OS-ERα cells [3]; in combination with 10 nM E2, 24 hours): synergistic activation
- synergy with receptor agonist (hAR): no synergy
- effect on E2 activation of the KRT19 gene (MCF-7 cells [4]): did not have a significant effect
